How the values were obtained:
[1] = system: Normal human dermal fibroblasts (NHDFs) seeded on collagen type 1 gels; assay: Fibroblast-seeded collagen gel contraction; type: cell-based; details: for % of original size (mean): 0.1 mg/ml lactoferrin, 0.1 mg/ml ICI 118 551, 1.0 mg/ml Isoproterenol, 3.5×10^4 cells per well
Experimental: Normal human dermal fibroblasts (NHDFs) were obtained by tissue donation following circumcision following patient informed consent. The tissue was rinsed in Phosphate Buffered Saline (PBS) and Pen/Strep and Amphotericin B (Pen/strep) at 10 ug/ml. The tissue was then minced to 1 mm2 sections and suspended in Trypsin-EDTA 1:250 at room temperature (RT) for 1 hr. The tissue was then washed twice by centrifugation at 2500 g for 3min in serum supplemented DMEM/F12. A single cell suspension was created using mechanical disaggregation. The cells were counted using a haemocytometer and cultured at 1×10^6 cells per T75 tissue culture flask in DMEM/F12 containing 10% Fetal Bovine Serum (FBS) and 10 ug/ml Pen/strep. Incubators were kept at 37° C. and 5% CO2. Medium was changed every 3-4 days and cells were used from the 4th passage in vitro.
Collagen gels were formed. A solution of collagen, consisting of 2 mg/ml type 1 bovine collagen from bovine Achilles tendon in 0.5M acetic acid, was made. This made up 80% of the gel. Another 10% was made up of 10×PBS and the remaining volume was made up of FBS. The pH of the entire solution was adjusted to 7.4 using NaOH. 400 μl of the solution was placed into each well of a 24 well plate. The gels were set at 37° C. for 1 hr. After ensuring that the gels were set properly, they were detached from the sides of the wells and exposed to 1 ml fully supplemented DMEM/F12 overnight to acclimatize. The complete gels were seeded with 3.5×10^4 cells per well and the test compounds were added at this point. The test compound were added as follows: 0.1 mg/ml lactoferrin, 0.1 mg/ml ICI 118 551, 1.0 mg/ml Isoproterenol. A cell only and no cell control were also incuded.
Photographs were taken from the same distance at 0, 3, 6, 12 and 24 hrs of exposure using a Canon Powershot A640 10MP camera. The photos were transferred to CorelDRAW X3 and the inside diameter of the well as well as the outer edge of the gel were measured using the circle tool. […] These two diameters were then converted to a percentage of the well diameter by the formula geloutside/wellinside×100=gelrelative. This value was then worked out the same way for each gel at every time period. The time period Ohrs taken to be 100% of gel size and each time period after that was compared to it as a relative percentage. The standard deviation was calculated based on the original relative percentage to the well.

[2] = system: NHDFs; assay: Viability monitored visually for 6 days; type: cell-based, human
Experimental: Cytotoxicity was measured using the MTT assay on NHDFs. Human dermal cells were used as it approximates the intended use. No cytotoxicity was found. […] All other cells maintained their viability over the six day period.

[3] = system: Normal human dermal fibroblasts (NHDFs) seeded on collagen type 1 gels; assay: Fibroblast-seeded collagen gel contraction; type: cell-based
[4] = system: fibroblasts; details: concentration of 1 microM; cited from earlier work
[5] = 0 hrs (taken to be 100% of gel size)

## CC(C)NCC(O)c1ccc(O)c(O)c1 (centres unmarked) [Isoproterenol]
[1]; [5]
  % of original size (mean): 100%
[1]; 3 hrs
  % of original size (mean): 100.8622%
[1]; 6 hrs
  % of original size (mean): 79.6766%
[1]; 12 hrs
  % of original size (mean): 82.7588%
[1]; 24 hrs
  % of original size (mean): 83.79%
[2]
  viability monitored visually: started to lose viability

## Cc1ccc(OCC(O)C(C)NC(C)C)c2c1CCC2 (racemic) [ICI 118 551, erythro-dl-1-(7-methylindan-4-yloxy)-3-isopropylaminobutan-2-ol]
[3]; dose response 0.01 mg/ml to 0.2 mg/ml, gel containing 3.5×10^4 cells
  ideal concentration for gel contraction: 0.1 mg/mL
[3]; dose response from 0.01 mg/ml, concentrations lower than 0.1 mg/ml
  activity at lower concentrations (gel contraction): not be significantly active
[3]; dose response up to 0.2 mg/ml, concentrations higher than 0.1 mg/ml
  effect of higher concentrations on rate of contraction: did not seem to increase the rate of contraction significantly
[3]; monitored for a further 3 days
  return of gels to original dimensions: did not return to their original dimensions
[1]; [5]
  % of original size (mean): 100%
[1]; 3 hrs
  % of original size (mean): 66.04%
[1]; 6 hrs
  % of original size (mean): 53.8%
[1]; 12 hrs
  % of original size (mean): 51.33%
[1]; 24 hrs
  % of original size (mean): 51.86%
[1]; over 24 hrs
  rate of gel contraction compared with Lactoferrin and cells only controls: contract the gels at a higher rate

## YTRVVWXA: peptide with the amino acid sequence YTRVVWXA (a fragment from Lactoferrin)
[4]
  collagen gel contraction by fibroblasts relative to control: about three times control
